Measured values: ChEMBL document CHEMBL4373717, “Coumarin-containing hybrids and their anticancer activities” (Eur J Med Chem, 2019)
Values belong to the compound of their own block, whether it stands above or below them.

Experiments:
Format in all cases: functional, cell-based
[1] = system: MDA-MB-231; experiment: Cytotoxicity against human MDA-MB-231 cells assessed as reduction in cell viability after 24 hrs by MTT assay
[2] = system: A549; experiment: Cytotoxicity against human A549 cells assessed as reduction in cell viability after 24 hrs by MTT assay; conditions: A549, 24 h
[3] = system: MDA-MB-231; experiment: Anticancer activity against human MDA-MB-231 cells by MTT assay
[4] = system: 769-P; experiment: Anticancer activity against human 769-P cells by MTT assay
[5] = system: HepG2; experiment: Anticancer activity against human HepG2 cells by MTT assay
[6] = system: MCF7; experiment: Cytotoxicity against human MCF7 cells assessed as reduction in cell viability after 48 hrs by MTT assay; conditions: MCF7, 48 h
[7] = system: MCF7; experiment: Cytotoxicity against human MCF7 cells assessed as reduction in cell viability after 68 hrs by MTT assay; conditions: MCF7, 68 h
[8] = system: HeLa; experiment: Cytotoxicity against human HeLa cells assessed as reduction in cell viability after 68 hrs by MTT assay
[9] = system: K562; experiment: Cytotoxicity against human K562 cells assessed as reduction in cell viability after 68 hrs by MTT assay; conditions: K562, 68 h
[10] = system: A549; experiment: Cytotoxicity against human A549 cells assessed as reduction in cell viability after 68 hrs by MTT assay; conditions: A549, 68 h
[11] = system: A549; experiment: Anticancer activity against human A549 cells by MTT assay

Structure (SMILES): O=c1oc2ccccc2cc1-c1cc(-c2ccc(Br)cc2)nc(Cc2ccc(F)cc2)n1
IC50 ([1]; Homo sapiens, MDA-MB-231, 24 h): 2150 to 28600 nM | IC50 [2]: 2150 to 28600 nM

IC50 [3]: 383 to 13600 nM | IC50 [5]: 383 to 13600 nM
Structure (SMILES): O=c1ccc2ccc(OCCCCCCCCCCn3cc(COc4ccc5ccc(=O)oc5c4)nn3)cc2o1
IC50 [4]: 383 to 13600 nM

Structure (SMILES): Cc1cc(-c2cc3ccccc3oc2=O)n(-c2nc(-c3ccccc3)cs2)n1
IC50 [6]: 4030 to 31500 nM

Structure (SMILES): COc1ccc(OC)c(NC(=O)Nc2ccc(Cc3c(C)c4cc(C(C)(C)C)c(O)cc4oc3=O)cn2)c1
IC50 [7]: 1660 to 19400 nM | IC50 [8]: 1660 to 19400 nM | IC50 [9]: 1660 to 19400 nM | IC50 [10]: 1660 to 19400 nM

Structure (SMILES): O=c1oc2ccccc2cc1-c1cc(-c2ccc(Cl)cc2)nc(Cc2ccc(F)cc2)n1
IC50 ([1]; Homo sapiens, MDA-MB-231, 24 h): 2510 nM | IC50 [2]: 2510 nM

Structure (SMILES): CC(=O)c1ccc(NC(=O)Nc2ccc(Cc3c(C)c4cc(C(C)(C)C)c(O)cc4oc3=O)cn2)cc1
IC50 [7]: 1660 to 19400 nM | IC50 [8]: 1660 to 19400 nM | IC50 [9]: 1660 to 19400 nM | IC50 [10]: 1660 to 19400 nM

Structure (SMILES): Cc1ccccc1NC(=O)c1ccc(-n2cc(COc3cc(=O)oc4ccccc34)nn2)cc1
IC50 ([1]; mda-mb-231): 30 to 91600 nM

Structure (SMILES): O=C(Nc1ccc(F)c(Cl)c1)c1ccc(-n2cc(COc3cc(=O)oc4ccccc34)nn2)cc1
IC50 ([1]; mda-mb-231): 30 to 91600 nM

IC50 [3]: 383 to 13600 nM | IC50 [5]: 383 to 13600 nM
Structure (SMILES): O=c1ccc2ccc(OCCCCn3cc(COc4ccc5ccc(=O)oc5c4)nn3)cc2o1
IC50 [4]: 383 to 13600 nM

Structure (SMILES): Cc1c(Cc2ccc(NC(=O)Nc3ccccc3)nc2)c(=O)oc2cc(O)c(C(C)(C)C)cc12
IC50 [7]: 1660 to 19400 nM | IC50 [8]: 1660 to 19400 nM | IC50 [9]: 1660 to 19400 nM | IC50 [10]: 1660 to 19400 nM

Structure (SMILES): Cc1cc(-c2cc3cc(Cl)ccc3oc2=O)n(-c2nc(-c3ccccc3)cs2)n1
IC50 [6]: 4030 to 31500 nM

Structure (SMILES): COc1ccc(NC(=O)c2ccc(-n3cc(COc4cc(=O)oc5ccccc45)nn3)cc2)cc1
IC50 ([1]; mda-mb-231): 30 to 91600 nM

IC50 [3]: 383 to 13600 nM | IC50 [5]: 383 to 13600 nM
Structure (SMILES): Cc1cc(=O)oc2cc(OCc3cn(CCOc4ccc5ccc(=O)oc5c4)nn3)ccc12
IC50 [4]: 383 to 13600 nM

IC50 [3]: 383 to 13600 nM | IC50 [5]: 383 to 13600 nM
Structure (SMILES): Cc1cc(=O)oc2cc(OCc3cn(CCCCCCCCCCCCOc4ccc5ccc(=O)oc5c4)nn3)ccc12
IC50 [4]: 383 to 13600 nM

IC50 [3]: 383 to 13600 nM | IC50 [5]: 383 to 13600 nM
Structure (SMILES): O=c1ccc2ccc(OCCCCCCCn3cc(COc4ccc5ccc(=O)oc5c4)nn3)cc2o1
IC50 [4]: 383 to 13600 nM

IC50 [3]: 383 to 13600 nM | IC50 [5]: 383 to 13600 nM
Structure (SMILES): O=c1ccc2ccc(OCCCCCCCCCn3cc(COc4ccc5ccc(=O)oc5c4)nn3)cc2o1
IC50 [4]: 383 to 13600 nM

IC50 [3]: 383 to 13600 nM | IC50 [5]: 383 to 13600 nM
Structure (SMILES): O=c1ccc2ccc(OCCCCCCCCCCCCn3cc(COc4ccc5ccc(=O)oc5c4)nn3)cc2o1
IC50 [4]: 383 to 13600 nM

IC50 [3]: 383 to 13600 nM | IC50 [5]: 383 to 13600 nM
Structure (SMILES): Cc1cc(=O)oc2cc(OCc3cn(CCCCCCCOc4ccc5ccc(=O)oc5c4)nn3)ccc12
IC50 [4]: 383 to 13600 nM

Structure (SMILES): O=C(Nc1ccccc1Br)c1ccc(-n2cc(COc3cc(=O)oc4ccccc34)nn2)cc1
IC50 ([1]; mda-mb-231): 30 to 91600 nM

Structure (SMILES): Cc1ccc(NC(=O)c2ccc(-n3cc(COc4cc(=O)oc5ccccc45)nn3)cc2)c(C)c1
IC50 ([1]; mda-mb-231): 30 to 91600 nM

IC50 [11]: 420 to 430 nM
Structure (SMILES): Cc1ccc2c(C3C4=C(CCCC4=O)OC3c3cc(=O)oc4ccc(C)cc34)cc(=O)oc2c1 (stereo not drawn)

Structure (SMILES): O=C(Nc1ccc(Br)cc1)c1ccc(-n2cc(COc3cc(=O)oc4ccccc34)nn2)cc1
IC50 ([1]; mda-mb-231): 30 to 91600 nM

Structure (SMILES): COc1cccc(-c2cc(-c3cc4ccccc4oc3=O)nc(Cc3ccc(F)cc3)n2)c1
IC50 ([1]; Homo sapiens, MDA-MB-231, 24 h): 2150 to 28600 nM | IC50 [2]: 2150 to 28600 nM

Structure (SMILES): Cc1c(Cl)cccc1NC(=O)c1ccc(-n2cc(COc3cc(=O)oc4ccccc34)nn2)cc1
IC50 ([1]; mda-mb-231): 30 to 91600 nM

IC50 [11]: 420 to 430 nM
Structure (SMILES): Cc1ccc2oc(=O)cc(C3OC4=C(C(=O)CCC4)C3c3cc(=O)oc4ccc(C)cc34)c2c1 (stereo not drawn)

IC50 [11]: 350 nM
Structure (SMILES): CC(=O)O[C@H]1C(=O)[C@@]2(C)[C@H]([C@H](OC(=O)c3ccccc3)[C@]3(O)C[C@H](OC(=O)[C@H](O)[C@@H](NC(=O)c4ccccc4)c4ccccc4)C(C)=C1C3(C)C)[C@]1(OC(C)=O)CO[C@@H]1C[C@@H]2O [PACLITAXEL]
IC50 [7]: 3.3 to 14 nM | IC50 [8]: 3.3 to 14 nM | IC50 [9]: 3.3 to 14 nM | IC50 [10]: 3.3 to 14 nM
